Assay results reported in the NIST ThermoML archive (doi:10.1021/je050052+).

Assay: excess molar enthalpy (molar enthalpy of mixing); xn = mol fraction of the nth substance listed
Conditions: Liquid, Flow calorimetry

COC(=O)OC [dimethyl carbonate] + CCCO
Conditions | excess molar enthalpy [kcal/mol]
298.15 K, 1000 kPa, x1 = 0.05 | 0.108
298.15 K, 1000 kPa, x1 = 0.1 | 0.2025
298.15 K, 1000 kPa, x1 = 0.15 | 0.2782
298.15 K, 1000 kPa, x1 = 0.2 | 0.3401
298.15 K, 1000 kPa, x1 = 0.25 | 0.3833
298.15 K, 1000 kPa, x1 = 0.3 | 0.4194
298.15 K, 1000 kPa, x1 = 0.35 | 0.447
298.15 K, 1000 kPa, x1 = 0.4 | 0.4608
298.15 K, 1000 kPa, x1 = 0.45 | 0.4692
298.15 K, 1000 kPa, x1 = 0.5 | 0.4679
298.15 K, 1000 kPa, x1 = 0.55 | 0.4588
298.15 K, 1000 kPa, x1 = 0.6 | 0.4437
298.15 K, 1000 kPa, x1 = 0.65 | 0.4199
298.15 K, 1000 kPa, x1 = 0.7 | 0.3883
298.15 K, 1000 kPa, x1 = 0.75 | 0.3492
298.15 K, 1000 kPa, x1 = 0.8 | 0.2996
298.15 K, 1000 kPa, x1 = 0.85 | 0.2396
298.15 K, 1000 kPa, x1 = 0.9515 | 0.0831
313.15 K, 1000 kPa, x1 = 0.0485 | 0.1015
313.15 K, 1000 kPa, x1 = 0.1002 | 0.2101
313.15 K, 1000 kPa, x1 = 0.1512 | 0.2976
313.15 K, 1000 kPa, x1 = 0.2017 | 0.3682
313.15 K, 1000 kPa, x1 = 0.2516 | 0.4232
313.15 K, 1000 kPa, x1 = 0.3009 | 0.4634
313.15 K, 1000 kPa, x1 = 0.3497 | 0.4921
313.15 K, 1000 kPa, x1 = 0.4014 | 0.5134
313.15 K, 1000 kPa, x1 = 0.449 | 0.5231
313.15 K, 1000 kPa, x1 = 0.4995 | 0.5234
313.15 K, 1000 kPa, x1 = 0.5494 | 0.5136
313.15 K, 1000 kPa, x1 = 0.5987 | 0.4971
313.15 K, 1000 kPa, x1 = 0.6506 | 0.4702
313.15 K, 1000 kPa, x1 = 0.6988 | 0.4383
313.15 K, 1000 kPa, x1 = 0.7495 | 0.3945
313.15 K, 1000 kPa, x1 = 0.8491 | 0.2714
313.15 K, 1000 kPa, x1 = 0.901 | 0.1899
313.15 K, 1000 kPa, x1 = 0.9493 | 0.0957
313.15 K, 10000 kPa, x1 = 0.0482 | 0.1172
313.15 K, 10000 kPa, x1 = 0.0996 | 0.2233
313.15 K, 10000 kPa, x1 = 0.1504 | 0.3101
313.15 K, 10000 kPa, x1 = 0.2007 | 0.3795
313.15 K, 10000 kPa, x1 = 0.2505 | 0.4328
313.15 K, 10000 kPa, x1 = 0.2997 | 0.4731
313.15 K, 10000 kPa, x1 = 0.3483 | 0.502
313.15 K, 10000 kPa, x1 = 0.3999 | 0.5218
313.15 K, 10000 kPa, x1 = 0.4509 | 0.5315
313.15 K, 10000 kPa, x1 = 0.5013 | 0.5316
313.15 K, 10000 kPa, x1 = 0.5512 | 0.5228
313.15 K, 10000 kPa, x1 = 0.6005 | 0.5047
313.15 K, 10000 kPa, x1 = 0.6493 | 0.4798
313.15 K, 10000 kPa, x1 = 0.7007 | 0.4413
313.15 K, 10000 kPa, x1 = 0.7515 | 0.3942
313.15 K, 10000 kPa, x1 = 0.8514 | 0.2719
313.15 K, 10000 kPa, x1 = 0.9005 | 0.1934
313.15 K, 10000 kPa, x1 = 0.949 | 0.09892
328.15 K, 1000 kPa, x1 = 0.05 | 0.1178
328.15 K, 1000 kPa, x1 = 0.1 | 0.2285
328.15 K, 1000 kPa, x1 = 0.15 | 0.3207
328.15 K, 1000 kPa, x1 = 0.2 | 0.3941
328.15 K, 1000 kPa, x1 = 0.25 | 0.4542
328.15 K, 1000 kPa, x1 = 0.3 | 0.4986
328.15 K, 1000 kPa, x1 = 0.35 | 0.5304
328.15 K, 1000 kPa, x1 = 0.4 | 0.553
328.15 K, 1000 kPa, x1 = 0.45 | 0.5666
328.15 K, 1000 kPa, x1 = 0.5 | 0.5671
328.15 K, 1000 kPa, x1 = 0.55 | 0.5597
328.15 K, 1000 kPa, x1 = 0.6 | 0.5432
328.15 K, 1000 kPa, x1 = 0.65 | 0.5174
328.15 K, 1000 kPa, x1 = 0.7 | 0.4791
328.15 K, 1000 kPa, x1 = 0.75 | 0.4296
328.15 K, 1000 kPa, x1 = 0.85 | 0.2956
328.15 K, 1000 kPa, x1 = 0.9 | 0.2109
328.15 K, 1000 kPa, x1 = 0.95 | 0.1065

COC(=O)OC [dimethyl carbonate] + CO
Conditions | excess molar enthalpy [kcal/mol]
298.15 K, 1000 kPa, x2 = 0.25 | 0.2729
298.15 K, 1000 kPa, x2 = 0.3 | 0.2933
298.15 K, 1000 kPa, x2 = 0.35 | 0.3075
298.15 K, 1000 kPa, x2 = 0.4 | 0.315
298.15 K, 1000 kPa, x2 = 0.45 | 0.3163
298.15 K, 1000 kPa, x2 = 0.5 | 0.313
298.15 K, 1000 kPa, x2 = 0.55 | 0.3034
298.15 K, 1000 kPa, x2 = 0.6 | 0.2901
298.15 K, 1000 kPa, x2 = 0.65 | 0.2735
298.15 K, 1000 kPa, x2 = 0.7 | 0.2508
298.15 K, 1000 kPa, x2 = 0.75 | 0.2229
298.15 K, 1000 kPa, x2 = 0.8 | 0.1931
313.15 K, 100 kPa, x2 = 0.048 | 0.0748
313.15 K, 100 kPa, x2 = 0.1 | 0.1539
313.15 K, 100 kPa, x2 = 0.1492 | 0.2119
313.15 K, 100 kPa, x2 = 0.2014 | 0.2621
313.15 K, 100 kPa, x2 = 0.2506 | 0.2976
313.15 K, 100 kPa, x2 = 0.302 | 0.3238
313.15 K, 100 kPa, x2 = 0.3503 | 0.341
313.15 K, 100 kPa, x2 = 0.4001 | 0.3506
313.15 K, 100 kPa, x2 = 0.451 | 0.3535
313.15 K, 100 kPa, x2 = 0.4985 | 0.3472
313.15 K, 100 kPa, x2 = 0.5501 | 0.3409
313.15 K, 100 kPa, x2 = 0.6014 | 0.3255
313.15 K, 100 kPa, x2 = 0.6489 | 0.3073
313.15 K, 100 kPa, x2 = 0.6987 | 0.2839
313.15 K, 100 kPa, x2 = 0.7499 | 0.254
313.15 K, 100 kPa, x2 = 0.7992 | 0.2162
313.15 K, 100 kPa, x2 = 0.851 | 0.1699
313.15 K, 100 kPa, x2 = 0.95 | 0.0561
313.15 K, 1000 kPa, x2 = 0.0477 | 0.08505
313.15 K, 1000 kPa, x2 = 0.0994 | 0.158
313.15 K, 1000 kPa, x2 = 0.1484 | 0.2155
313.15 K, 1000 kPa, x2 = 0.2003 | 0.2637
313.15 K, 1000 kPa, x2 = 0.2493 | 0.2969
313.15 K, 1000 kPa, x2 = 0.3006 | 0.3229
313.15 K, 1000 kPa, x2 = 0.3487 | 0.3403
313.15 K, 1000 kPa, x2 = 0.3985 | 0.3519
313.15 K, 1000 kPa, x2 = 0.4493 | 0.3546
313.15 K, 1000 kPa, x2 = 0.5006 | 0.3496
313.15 K, 1000 kPa, x2 = 0.5485 | 0.3404
313.15 K, 1000 kPa, x2 = 0.5998 | 0.3247
313.15 K, 1000 kPa, x2 = 0.6504 | 0.3053
313.15 K, 1000 kPa, x2 = 0.7001 | 0.2815
313.15 K, 1000 kPa, x2 = 0.7512 | 0.2509
313.15 K, 1000 kPa, x2 = 0.8005 | 0.2149
313.15 K, 1000 kPa, x2 = 0.8501 | 0.1691
313.15 K, 1000 kPa, x2 = 0.9497 | 0.0534
313.15 K, 10000 kPa, x2 = 0.0477 | 0.08818
313.15 K, 10000 kPa, x2 = 0.0994 | 0.1621
313.15 K, 10000 kPa, x2 = 0.1484 | 0.2188
313.15 K, 10000 kPa, x2 = 0.2003 | 0.2659
313.15 K, 10000 kPa, x2 = 0.2493 | 0.2989
313.15 K, 10000 kPa, x2 = 0.3006 | 0.3252
313.15 K, 10000 kPa, x2 = 0.3487 | 0.3416
313.15 K, 10000 kPa, x2 = 0.3985 | 0.3512
313.15 K, 10000 kPa, x2 = 0.4493 | 0.3536
313.15 K, 10000 kPa, x2 = 0.5006 | 0.3509
313.15 K, 10000 kPa, x2 = 0.5485 | 0.3423
313.15 K, 10000 kPa, x2 = 0.5998 | 0.3285
313.15 K, 10000 kPa, x2 = 0.6504 | 0.3088
313.15 K, 10000 kPa, x2 = 0.7001 | 0.2842
313.15 K, 10000 kPa, x2 = 0.7512 | 0.2511
313.15 K, 10000 kPa, x2 = 0.8005 | 0.2158
313.15 K, 10000 kPa, x2 = 0.8501 | 0.1733
313.15 K, 10000 kPa, x2 = 0.9497 | 0.0561
328.15 K, 1000 kPa, x2 = 0.05 | 0.09171
328.15 K, 1000 kPa, x2 = 0.1 | 0.1733
328.15 K, 1000 kPa, x2 = 0.15 | 0.2349
328.15 K, 1000 kPa, x2 = 0.2 | 0.2867
328.15 K, 1000 kPa, x2 = 0.25 | 0.3264
328.15 K, 1000 kPa, x2 = 0.3 | 0.3555
328.15 K, 1000 kPa, x2 = 0.35 | 0.375
328.15 K, 1000 kPa, x2 = 0.4 | 0.3883
328.15 K, 1000 kPa, x2 = 0.45 | 0.3934
328.15 K, 1000 kPa, x2 = 0.5 | 0.3894
328.15 K, 1000 kPa, x2 = 0.55 | 0.3796
328.15 K, 1000 kPa, x2 = 0.6 | 0.3638
328.15 K, 1000 kPa, x2 = 0.65 | 0.3412
328.15 K, 1000 kPa, x2 = 0.7 | 0.3139
328.15 K, 1000 kPa, x2 = 0.75 | 0.279
328.15 K, 1000 kPa, x2 = 0.8 | 0.2383
328.15 K, 1000 kPa, x2 = 0.8509 | 0.1886
328.15 K, 1000 kPa, x2 = 0.95 | 0.0625
